Assay results from PubChem BioAssay (NCI).
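Method: 48-hour compound exposure of cells in 96-well plates, five concentrations, linear interpolation of endpoints. GI50 marks 50% less growth. The concentration for full growth arrest is given as TGI.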

Columns and labels:
Assay in all cases: NCI tumour cell line growth inhibition, 48 h
[1] = system: A498 renal
[2] = system: CCRF-CEM leukemia
[3] = system: SNB-19 CNS
[4] = system: U251 CNS
[5] = system: MCF7 breast
[6] = system: SK-MEL-28 melanoma
[7] = system: SK-MEL-5 melanoma
[8] = system: A549 NSCLC
[9] = system: MOLT-4 leukemia
[10] = system: NCI-H226 lung
[11] = system: M14 melanoma
[12] = system: MDA-MB-231 breast
[13] = system: PC-3 prostate
[14] = system: EKVX NSCLC
[15] = system: HS 578T breast
[16] = system: RXF 393 renal
[17] = system: SF-295 CNS
[18] = system: UO-31 renal
[19] = system: OVCAR-8 ovarian
[20] = system: 786-0 renal
[21] = system: CAKI-1 renal
[22] = system: TK-10 renal
[23] = system: HOP-92 NSCLC
[24] = system: SK-OV-3 ovarian
[25] = system: IGROV1 ovarian
[26] = system: K-562 leukemia
[27] = system: HOP-62 NSCLC
[28] = system: DU-145 prostate
[29] = system: COLO 205 colon
[30] = system: HT29 colon
[31] = system: NCI-H460 lung
[32] = system: OVCAR-3 ovarian
[33] = system: HL-60(TB) leukemia
[34] = system: OVCAR-5 ovarian
[35] = system: T-47D breast
[36] = system: NCI-H23 lung
[37] = system: RPMI-8226 leukemia
[38] = system: UACC-257 melanoma
[39] = system: SF-268 CNS
[40] = system: SK-MEL-2 melanoma
[41] = system: UACC-62 melanoma
[42] = system: ACHN renal
[43] = system: MDA-MB-435
[44] = system: KM12 colon
[45] = system: SNB-75 CNS
[46] = system: HCT-15 colon
[47] = system: LOX IMVI melanoma
[48] = system: SF-539 CNS
[49] = system: MALME-3M melanoma
[50] = system: BT-549 breast
[51] = system: HCC-2998 colon
[52] = system: HCT-116 colon
[53] = system: NCI-H522 lung
[54] = system: SN12C renal
[55] = system: NCI/ADR-RES ovarian
[56] = system: SW-620 colon
[57] = system: SR leukemia
[58] = system: OVCAR-4 ovarian

`CCCc1cc2cc(-n3nc(CC)c4c3CC(C)(C)CC4=O)cc(NC3CCC(O)CC3)c2c(=O)[nH]1` (centres undefined) was tested, and the GI50 [1] was 2020 nM, the TGI [1] was > 100000 nM and the GI50 [2] was 1340 nM. The TGI [2] was > 100000 nM, the GI50 [3] was 3020 nM and the TGI [3] was > 100000 nM. For the same compound, the GI50 [4] was 3370 nM, the TGI [4] was > 100000 nM and the GI50 [5] was 289 nM. For the same compound, the TGI [5] was > 100000 nM, the GI50 [6] was 869 nM and the TGI [6] was > 100000 nM. For the same compound, the GI50 [7] was 1940 nM, the TGI [7] was > 100000 nM and the GI50 [8] was 1460 nM. The TGI [8] was > 100000 nM, the GI50 [9] was 503 nM and the TGI [9] was > 100000 nM. For the same compound, the GI50 [10] was 2620 nM, the TGI [10] was > 100000 nM and the GI50 [11] was 572 nM. The TGI [11] was > 100000 nM, the GI50 [12] was 652 nM and the TGI [12] was > 100000 nM. The GI50 [13] was 1310 nM, the TGI [13] was > 100000 nM and the GI50 [14] was > 100000 nM. For the same compound, the TGI [14] was > 100000 nM, the GI50 [15] was 3490 nM and the TGI [15] was > 100000 nM. The GI50 [16] was 408 nM, the TGI [16] was 2410 nM and the GI50 [17] was 759 nM. For the same compound, the TGI [17] was > 100000 nM, the GI50 [18] was 568 nM and the TGI [18] was > 100000 nM. The GI50 [19] was 2040 nM, the TGI [19] was > 100000 nM and the GI50 [20] was 2950 nM. The TGI [20] was > 100000 nM, the GI50 [21] was 1130 nM and the TGI [21] was > 100000 nM. The GI50 [22] was 621 nM, the TGI [22] was > 100000 nM and the GI50 [23] was 1710 nM. The TGI [23] was 8600 nM, the GI50 [24] was 409 nM and the TGI [24] was > 100000 nM. For the same compound, the GI50 [25] was 831 nM, the TGI [25] was > 100000 nM and the GI50 [26] was 185 nM. The TGI [26] was > 100000 nM, the GI50 [27] was 836 nM and the TGI [27] was > 100000 nM. The GI50 [28] was 530 nM, the TGI [28] was > 100000 nM and the GI50 [29] was 464 nM. For the same compound, the TGI [29] was > 100000 nM, the GI50 [30] was 100 nM and the TGI [30] was > 100000 nM. For the same compound, the GI50 [31] was 482 nM, the TGI [31] was > 100000 nM and the GI50 [32] was 4430 nM. For the same compound, the TGI [32] was > 100000 nM, the GI50 [33] was 315 nM and the TGI [33] was > 100000 nM. The GI50 [34] was 3510 nM, the TGI [34] was > 100000 nM and the GI50 [35] was 2060 nM. For the same compound, the TGI [35] was > 100000 nM, the GI50 [36] was 127 nM and the TGI [36] was 50800 nM. For the same compound, the GI50 [37] was 1580 nM, the TGI [37] was > 100000 nM and the GI50 [38] was 3000 nM. The TGI [38] was > 100000 nM, the GI50 [39] was 7290 nM and the TGI [39] was > 100000 nM. The GI50 [40] was 2270 nM, the TGI [40] was > 100000 nM and the GI50 [41] was 487 nM. For the same compound, the TGI [41] was > 100000 nM, the GI50 [42] was 495 nM and the TGI [42] was > 100000 nM. For the same compound, the GI50 [43] was 444 nM, the TGI [43] was > 100000 nM and the GI50 [44] was 758 nM. The TGI [44] was > 100000 nM, the GI50 [45] was 6220 nM and the TGI [45] was > 100000 nM. The GI50 [46] was 400 nM, the TGI [46] was > 100000 nM and the GI50 [47] was 198 nM. The TGI [47] was > 100000 nM, the GI50 [48] was 1720 nM and the TGI [48] was 89300 nM. The GI50 [49] was 839 nM, the TGI [49] was > 100000 nM and the GI50 [50] was 2300 nM. The TGI [50] was > 100000 nM, the GI50 [51] was 842 nM and the TGI [51] was > 100000 nM. The GI50 [52] was 193 nM, the TGI [52] was > 100000 nM and the GI50 [53] was 1010 nM. For the same compound, the TGI [53] was 11500 nM, the GI50 [54] was 365 nM and the TGI [54] was > 100000 nM. The GI50 [55] was 3880 nM, the TGI [55] was > 100000 nM and the GI50 [56] was 370 nM. For the same compound, the TGI [56] was > 100000 nM.
With `Oc1cccc2ccc(-c3nnc(SCc4ccc(O)c5ncccc45)n3-c3ccccc3)nc12` the GI50 [1] was 1810 nM, the TGI [1] was > 31000 nM and the GI50 [2] was 411 nM. For the same compound, the TGI [2] was > 63700 nM, the GI50 [3] was 425 nM and the TGI [3] was > 44100 nM. The GI50 [4] was 293 nM, the TGI [4] was 7600 nM and the GI50 [5] was 325 nM. The TGI [5] was > 35300 nM, the GI50 [6] was 533 nM and the TGI [6] was > 100000 nM. For the same compound, the GI50 [7] was 579 nM, the GI50 [8] was 651 nM and the TGI [8] was > 35800 nM. The GI50 [9] was 459 nM, the TGI [9] was > 47400 nM and the GI50 [10] was 3040 nM. The TGI [10] was > 50800 nM, the GI50 [11] was 476 nM and the TGI [11] was 3500 nM. The GI50 [12] was 996 nM, the TGI [12] was 16200 nM and the GI50 [13] was 391 nM. For the same compound, the TGI [13] was > 37800 nM, the GI50 [14] was 788 nM and the TGI [14] was > 26400 nM. The GI50 [15] was 398 nM, the TGI [15] was 6240 nM and the GI50 [57] was 385 nM. The TGI [57] was > 50800 nM, the GI50 [16] was 744 nM and the TGI [16] was 19100 nM. It also gave a GI50 [17] of 460 nM, a TGI [17] of 11900 nM and a GI50 [18] of 297 nM. The TGI [18] was 1570 nM, the GI50 [19] was 408 nM and the TGI [19] was 11900 nM. It also gave a GI50 [20] of 759 nM, a TGI [20] of 11700 nM and a GI50 [21] of 518 nM. It also gave a TGI [21] of 7250 nM, a GI50 [22] of 428 nM and a TGI [22] of 7280 nM. It also gave a GI50 [23] of 257 nM, a TGI [23] of 940 nM and a GI50 [24] of 529 nM. For the same compound, the TGI [24] was 4890 nM, the GI50 [25] was 735 nM and the TGI [25] was 11500 nM. The GI50 [26] was 339 nM, the TGI [26] was > 100000 nM and the GI50 [27] was 519 nM. For the same compound, the TGI [27] was 6840 nM, the GI50 [28] was 580 nM and the TGI [28] was > 100000 nM. For the same compound, the GI50 [29] was 4360 nM, the TGI [29] was > 100000 nM and the GI50 [30] was 7400 nM. The TGI [30] was > 100000 nM, the GI50 [31] was 311 nM and the TGI [31] was 1560 nM. For the same compound, the GI50 [33] was 369 nM, the GI50 [34] was 3430 nM and the TGI [34] was > 81100 nM. For the same compound, the GI50 [35] was 380 nM, the TGI [35] was 2570 nM and the GI50 [36] was 533 nM. The TGI [36] was > 33500 nM, the GI50 [58] was 672 nM and the TGI [58] was 9210 nM. For the same compound, the GI50 [37] was 437 nM, the TGI [37] was > 100000 nM and the GI50 [38] was 708 nM. For the same compound, the TGI [38] was 6620 nM, the GI50 [39] was 471 nM and the TGI [39] was > 73900 nM. The GI50 [40] was 540 nM, the TGI [40] was 5710 nM and the GI50 [41] was 1060 nM. For the same compound, the TGI [41] was 5080 nM, the GI50 [42] was 419 nM and the TGI [42] was 2440 nM. The GI50 [43] was 441 nM, the TGI [43] was > 73800 nM and the GI50 [44] was 507 nM. The TGI [44] was > 100000 nM, the GI50 [45] was 279 nM and the TGI [45] was 4420 nM. The GI50 [46] was 323 nM, the TGI [46] was > 37100 nM and the GI50 [47] was 556 nM. For the same compound, the TGI [47] was 7940 nM, the GI50 [48] was 430 nM and the TGI [48] was 3410 nM. For the same compound, the GI50 [49] was 599 nM, the TGI [49] was 5000 nM and the GI50 [50] was 419 nM. The TGI [50] was > 21700 nM, the GI50 [51] was 612 nM and the TGI [51] was > 100000 nM. For the same compound, the GI50 [52] was 324 nM, the TGI [52] was 9380 nM and the GI50 [53] was 456 nM. It also gave a TGI [53] of 11900 nM, a GI50 [54] of 448 nM and a TGI [54] of 18300 nM. It also gave a GI50 [55] of 356 nM, a TGI [55] of 6330 nM and a GI50 [56] of 403 nM. For the same compound, the TGI [56] was > 35700 nM.
